Tests used:
His-hSHIP1 enzyme [1] = target: T1, His-hSHIP1 enzyme (Homo sapiens, UniProt Q92835); assay: His-hSHIP1 activity, approach 2 (ratio of initial velocities IP4 25/IP4 250); type: biochemical; parameters: key: +++: higher than reference or reference - 15%; ++: reference - 16% to reference - 30%; +: reference - 31% or lower; settings: ratio of initial velocities IP4 25/IP4 250 versus reference SHIP1 activator; asterisk in Table 2
T1 construct: His
T1 sequence (Q92835 1-1189): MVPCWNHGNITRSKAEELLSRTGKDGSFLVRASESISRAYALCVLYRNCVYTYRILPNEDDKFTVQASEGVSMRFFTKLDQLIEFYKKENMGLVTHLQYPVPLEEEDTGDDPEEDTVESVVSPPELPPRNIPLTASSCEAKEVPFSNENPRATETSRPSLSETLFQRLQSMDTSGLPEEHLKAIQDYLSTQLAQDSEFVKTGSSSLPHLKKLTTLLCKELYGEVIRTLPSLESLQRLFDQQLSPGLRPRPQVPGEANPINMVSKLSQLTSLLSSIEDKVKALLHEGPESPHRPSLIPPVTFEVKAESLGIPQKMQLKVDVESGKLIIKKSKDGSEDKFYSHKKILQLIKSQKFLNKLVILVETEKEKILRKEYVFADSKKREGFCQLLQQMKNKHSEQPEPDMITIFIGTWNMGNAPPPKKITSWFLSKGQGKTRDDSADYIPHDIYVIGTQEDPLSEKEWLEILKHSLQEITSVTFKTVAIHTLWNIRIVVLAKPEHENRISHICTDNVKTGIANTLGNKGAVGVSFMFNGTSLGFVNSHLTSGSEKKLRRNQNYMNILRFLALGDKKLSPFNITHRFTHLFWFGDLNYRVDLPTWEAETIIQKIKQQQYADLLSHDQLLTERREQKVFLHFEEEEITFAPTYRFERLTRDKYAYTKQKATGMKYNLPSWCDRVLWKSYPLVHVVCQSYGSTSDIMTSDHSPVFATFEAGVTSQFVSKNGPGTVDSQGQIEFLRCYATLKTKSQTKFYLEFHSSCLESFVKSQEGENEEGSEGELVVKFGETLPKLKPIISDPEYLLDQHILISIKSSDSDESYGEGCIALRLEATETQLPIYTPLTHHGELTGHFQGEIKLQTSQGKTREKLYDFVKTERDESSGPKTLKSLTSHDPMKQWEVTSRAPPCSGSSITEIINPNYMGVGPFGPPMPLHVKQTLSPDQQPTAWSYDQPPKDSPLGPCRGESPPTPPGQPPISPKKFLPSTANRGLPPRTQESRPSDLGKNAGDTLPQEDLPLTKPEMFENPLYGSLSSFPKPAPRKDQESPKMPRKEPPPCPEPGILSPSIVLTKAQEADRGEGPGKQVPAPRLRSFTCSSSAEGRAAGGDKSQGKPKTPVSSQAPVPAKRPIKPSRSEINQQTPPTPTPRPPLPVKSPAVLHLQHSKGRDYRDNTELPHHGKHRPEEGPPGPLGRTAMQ
Protocol: (§1) Test compounds are dissolved in 95% ethanol to form stock solutions. Before screening, the stock solutions are diluted with Phosphatase Assay Buffer (20 mM Tris-HCL, 10 mM MgCl2 pH 7.5, 0.02% Tween 20) to form working assay solutions that contain 10% ethanol. The assay is carried out on 96-well microtiter plates using a modified procedure of that reported by Ong et al., Blood 110, 1942-1949, 2007 and Yang et al., Org Lett 7, 1073-1076, 2005, both of which references are incorporated herein by reference in their entirety.
In the second approach, a master mix is prepared that contains […] (0.4-1.6 ng/μL final), 25 μL of the substrate, IP4 (25 or 250 μM final), and 50 μL of test compound in 3.3% ethanol ([…]). Control blanks are also prepared by replacing His-hSHIP1 enzyme, IP4, or test compounds with Phosphate Assay Buffer. […] Each reaction component is preincubated at 37° C. for 30 min before adding to a 96-well microtiter plate. The master mix is then incubated at 37° C. At time 0, 20, 25 and 30 min, 25 μL of the master mix is removed and transferred to a new 96-well microtiter plate, to which 100 μL of Biomol Green Reagent is added to stop the reaction. After incubating the mixture for 20 min at room temperature for color development, the absorbance is read with SpectraMax Plus 96-well plate reader at a wavelength of 650 nm. Phosphate released is plotted against time to calculate the initial velocities (i.e., slope of the graph) at each IP4 concentration. The initial velocities are baseline corrected and the ratio of initial velocities (IP425/IP4250) is calculated and used to rate the test compounds.

[2] = test system: Akt phosphorylation in Molt-4 (SHIP1+) lymphocytes; assay: Akt phosphorylation in lymphocytes, Molt-4 (Western blot); type: cell-based; parameters: key: +: inhibits Akt phosphorylation at 10 μM; −: no effect on Akt phosphorylation at 10 μM; settings: 10 μM; IGF-1 stimulated Molt-4 (PTEN−/SHIP1+) cells
Protocol: (§2) Jurkat (PTEN−/SHIP1−) or Molt-4 (PTEN−/SHIP1+) cells are starved in serum free RPMI for overnight. In a 15 mL conical tube, 2-3 million serum starved cells (1 million cells per mL) are treated with various concentrations of test compound (0.1, 1, or 10 μM final in 0.1% DMSO) for 30 min at 37° C. followed by stimulation with 100 ng/mL of IGF-1 for 1 hour at 37° C. After stimulation, cells are washed once with ice-cold DPBS and lysed with Lysis Buffer (20 mM Tris-HCl, pH 7.5, 140 mM NaCl, 1% NP-40, Complete Mini Protease Inhibitor Cocktail, 10 mM NaF, 1 mM Na3VO4, 1 mM β-glycerolphosphate) on ice for 30 min with vortexing every 10 min. Samples are then centrifuged at 13,000 rpm for 20 min, and supernatants are collected as total cell lysate samples. Protein concentration is determined using bicinchonic acid assay, and about 15 μg of total protein from each sample is loaded and separated on a 4-12% Tris-Glycine gel. After SDS-PAGE, proteins are transferred from the gel to a nitrocellulose membrane. The membrane is blocked in 5% BSA in PBS containing 0.1% Tween-20 (PBS-T) for 1 hour at room temperature before probing with primary antibodies for overnight at 4° C. The following antibodies are used: mouse anti-SHIP1 (1:500 dilution; Santa Cruz, Calif., USA), rabbit anti-phospho-Akt(Ser473) (1:1000 dilution; Cell Signaling Technologies, MA, USA), rabbit anti-Akt (1:1000; Cell Signaling Technologies, MA, USA), and rabbit anti-actin (1:2000; Cell Signaling Technologies, MA, USA). The membrane is then incubated with goat anti-rabbit or anti-mouse secondary antibodies (1:3000) for 1 hour at room temperature. Target proteins on the membrane are detected with ECL solution and exposed on a film.

[3] = test system: Akt phosphorylation in Jurkat (SHIP1−) lymphocytes; assay: Akt phosphorylation in lymphocytes, Jurkat (Western blot); type: cell-based; parameters: key: +: inhibits Akt phosphorylation at 10 μM; −: no effect on Akt phosphorylation at 10 μM; settings: 10 μM; IGF-1 stimulated Jurkat (PTEN−/SHIP1−) cells
Protocol: as §2

His-hSHIP1 enzyme [4] = target: T1, His-hSHIP1 enzyme; assay: His-hSHIP1 activity, approach 1 (phosphate release from IP4, Biomol Green); type: biochemical; settings: activation of His-hSHIP1; IP4 50 μM; test compound 0-300 μM; no asterisk in Table 2
Protocol: as §1
Data were generated by one of two variant methods. Test compounds are screened by one of two approaches described as follows. In the first approach, each reaction contains 5 μL of His-hSHIP1 enzyme (5-20 ng), 10 μL of the substrate, 1,3,4,5-inositol tetrakisphosphate (IP4; 50 μM final), 5 μL of Phosphatase Assay Buffer, and 5 µL of test compound at various concentrations in 10% ethanol (0-300 μM final). Control blanks are also prepared by replacing His-hSHIP1 enzyme, IP4, or test compounds with Phosphatase Assay Buffer. After adding the reaction components in a 96-well microtiter plate on ice, the reaction is mixed by briefly shaking the plate vigorously. The reaction is then incubated at 37° C. for 15 min with gentle shaking followed by addition of 100 μL of Biomol Green Reagent (BIOMOL, Pa., USA) to terminate the reaction. The free phosphate released from IP4 by His-hSHIP1 binds to the Biomol Green Reagent, which turns the dye to green color. After incubating the mixture for 20 min at room temperature for color development, the absorbance is read with SpectraMax Plus 96-well plate reader (Molecular Devices, Sunnyvale, Calif., USA) at a wavelength of 650 nm.

[5] = test system: passive cutaneous anaphylaxis in mice; assay: Passive cutaneous anaphylaxis in mice; type: in vivo; settings: oral gavage, doses less than 20 mg/kg
Protocol: The activity of representative compounds on passive cutaneous anaphylaxis in mice was evaluated according to the procedures disclosed by Ovary, J Immunol 81, 355-357, 1958 and Halpern et al., Br J Pharmacol Chemother 20, 389-398, 1963, both of which are incorporated herein by reference in their entirety.
To induce a passive cutaneous anaphylaxis, mice undergo intradermal ear inoculation on their right ear with 25 ng in 20 μL of anti-DNP-IgE. The left ears are untreated and serve as negative controls. Twenty-four hours after inoculation, all mice are administered test compound by oral gavage (PO). Sixty minutes after oral administration, mice are given a tail vein injection of 2% Evan's Blue (0.2 μm filtered, in 200 μL saline) followed by a second tail IV injection of 100 μg DNP-HSA (in 200 μL). Sixty minutes following the DNP-HAS injection, mice are euthanized using CO2 inhalation. Subsequently, ear biopsies are performed by taking four millimetre punches from both ears, which then undergo Evan's Blue extraction using formamide incubation in 96 well plates. Eighty μL of eluents are transferred to flat-bottom 96-well plates and absorbance read using SpectraMax M5 spectrophotometer (Molecular Devices, Sunnyvale, Calif., USA) at 620 nm. Background readings from all samples are taken at 740 nm and subtracted from the 620 nm readings. Data are reported as OD.

[6] = test system: carrageenan paw edema in mice; assay: Carrageenan paw edema in mice; type: in vivo; settings: 30 mg/kg orally one hour before carrageenan, 4 hours after carrageenan
Protocol: The activity of representative compounds on carrageenan paw edema in mice was evaluated according to the procedures disclosed by Winter et al., Proc Soc Exp Biol Med 111, 544-547, 1962 which is incorporated herein by reference in its entirety.
To induce edema in the paw, test compounds were administered orally one hour before intraplantar injection of the right hind paw with carrageenan (50 μL of 1% suspension). Hind paw edema, as a measure of inflammation, was recorded using a plethysmometer (Ugo Basile, Italy) 4 hours after λ-carrageenan administration.

Scoring, Approach 2 (Initial velocity Ratio) (His-hSHIP1 enzyme [1])	Scoring, Approach 1 (% increase relative to background) (His-hSHIP1 enzyme [4])	SMILES	Molt-4 (SHIP +), Akt phosphorylation [2]	Jurkat (SHIP1 −), Akt phosphorylation [3]	% Inhibition of allergen-induced passive cutaneous anaphylaxis [5]	inhibition of carrageenan-induced paw edema [6]
+++		Cc1cc(O)cc(C[C@H]2[C@@H](C(=O)O)CC[C@H]3C(C)(C)CCC[C@]23C)c1 [Compound No. 20, (1S,2S,4aS,8aR)-1-[(3-hydroxy-5-methylphenyl)methyl]-5,5,8a-trimethyl-decahydronaphthalene-2-carboxylic acid]	−	−		
	+ (0 < x < 50)	Cc1cc(O)cc(C(=O)[C@H]2C(C)C(N)C[C@H]3C(C)(C)CCC[C@]23C)c1.Cl (stereo partly drawn) [Compound No. 22, 3-{[(1S,4aS,8aS)-3-amino-2,5,5,8a-tetramethyl-decahydronaphthalen-1-yl]carbonyl}-5-methylphenol hydrochloride]	+	−		
	+ (0 < x < 50)	CC1(C)CCC[C@]2(C)[C@@H](COc3cc(O)cc(O)c3)[C@](C)(O)CC[C@@H]12 [Compound No. 38, 5-{[(1S,2R,4aS,8aS)-2-hydroxy-2,5,5,8a-tetramethyl-decahydronaphthalen-1-yl]methoxy}benzene-1,3-diol]			+++ (>50% inhibition)	
	+++ (x ≥65)	C[C@H]1CC[C@H]2C(C)(C)CCC[C@]2(C)[C@H]1CC(=O)c1cc(O)cc(O)c1 [Compound No. 48, 2-[(1S,2S,4aS,8aR)-2,5,5,8a-tetramethyl-decahydronaphthalen-1-yl]-1-(3,5-dihydroxyphenyl)ethan-1-one]				21%
	+++ (x ≥65)	CC(=O)N[C@@H]1C[C@H]2C(C)(C)CCC[C@]2(C)[C@@H](C(=O)c2cc(O)cc(O)c2)[C@@H]1C [Compound No. 57, N-[(2R,3S,4S,4aS,8aS)-4-[(3,5-dihydroxyphenyl)carbonyl]-3,4a,8,8-tetramethyl-decahydronaphthalen-2-yl]acetamide]		−	+++ (>50% inhibition)	
	+++ (x ≥65)	C[C@H]1CC[C@H]2C(C)(C)CCC[C@]2(C)[C@H]1CC(O)c1cc(O)cc(O)c1 (stereo partly drawn) [Compound No. 58, 5-{2-[(1S,2S,4aS,8aR)-2,5,5,8a-tetramethyl-decahydronaphthalen-1-yl]-1-hydroxyethyl}benzene-1,3-diol]			+++ (>50% inhibition)	
+++		Cc1cc(O)cc(C(=O)[C@H]2[C@H](C)C(C(=O)O)C[C@H]3C(C)(C)CCC[C@]23C)c1 (stereo partly drawn) [Compound No. 68, (3S,4S,4aS,8aS)-4-[(3-hydroxy-5-methylphenyl)carbonyl]-3,4a,8,8-tetramethyl-decahydronaphthalene-2-carboxylic acid]	−	−		
